Target: T1, human M2 receptor (Homo sapiens, UniProt P08172)
T1 sequence (P08172 1-466): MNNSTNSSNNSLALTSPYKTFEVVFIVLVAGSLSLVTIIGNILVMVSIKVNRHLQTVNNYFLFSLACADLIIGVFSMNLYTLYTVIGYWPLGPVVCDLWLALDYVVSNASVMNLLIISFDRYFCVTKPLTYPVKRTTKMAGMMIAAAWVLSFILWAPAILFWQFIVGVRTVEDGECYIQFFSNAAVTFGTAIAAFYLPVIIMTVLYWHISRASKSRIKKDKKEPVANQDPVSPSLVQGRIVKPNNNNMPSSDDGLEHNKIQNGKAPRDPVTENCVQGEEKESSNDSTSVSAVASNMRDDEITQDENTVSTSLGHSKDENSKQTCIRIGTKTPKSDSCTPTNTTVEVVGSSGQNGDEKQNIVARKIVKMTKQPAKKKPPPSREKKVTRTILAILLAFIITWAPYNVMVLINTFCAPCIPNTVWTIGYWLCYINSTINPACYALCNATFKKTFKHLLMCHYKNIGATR
Test: Functional M2-GIRK1/4 activation test: allosteric potency (EC50) and efficiency
Details: for EC50: Receptor activity EC50, CHO-DUKX-M2-GIRK cells, acetylcholine at EC20, in some cases mean of two or more determinations; for Emax: read-out: Efficiency, boosting of the acetylcholine effect at EC20 acetylcholine concentration; for Emax / Efficiency: CHO-DUKX-M2-GIRK cells; for Efficiency: boosting of the acetylcholine effect at EC20 acetylcholine concentration

SMILES | EC50 | Emax | Efficiency
CC1C(=O)N(c2ccc3c(=O)c(C(=O)N[C@@H](C)C(F)(F)F)cn(-c4ncc(F)cc4F)c3n2)CC1O (mixture of isomers) [Example 112, 1-(3,5-Difluoropyridin-2-yl)-7-[4-hydroxy-3-methyl-2-oxopyrrolidin-1-yl]-4-oxo-N-[(2S)-1,1,1-trifluoropropan-2-yl]-1,4-dihydro-1,8-naphthyridine-3-carboxamide] | 0.525 µM | 98% | –
CC(NC(=O)c1cn(-c2ncc(F)cc2F)c2nc(N3CC(CO)(CO)C3)ccc2c1=O)C(F)(F)C(F)(F)F (single isomer, unassigned) [Example 183, 7-[3,3-Bis(hydroxymethyl)azetidin-1-yl]-1-(3,5-difluoropyridin-2-yl)-4-oxo-N-[3,3,4,4,4-pentafluorobutan-2-yl]-1,4-dihydro-1,8-naphthyridine-3-carboxamide] | 0.053 µM | 100% | –
O=C(N[C@H](C1CC1)C(F)(F)F)c1cn(-c2ncccc2Cl)c2nc(N3C[C@@H](O)CC3=O)ccc2c1=O [Example 22, 1-(3-Chloropyridin-2-yl)-N-[(1R)-1-cyclopropyl-2,2,2-trifluoroethyl]-7-[(4S)-4-hydroxy-2-oxopyrrolidin-1-yl]-4-oxo-1,4-dihydro-1,8-naphthyridine-3-carboxamide] | 0.575 µM | 85% | –
O=C(NC(C(F)(F)F)C(F)(F)F)c1cn(-c2ncc(F)cc2F)c2nc(N3CCC(CO)(CO)CC3)ccc2c1=O [Example 186, 7-[4,4-Bis(hydroxymethyl)piperidin-1-yl]-1-(3,5-difluoropyridin-2-yl)-N-(1,1,1,3,3,3-hexafluoropropan-2-yl)-4-oxo-1,4-dihydro-1,8-naphthyridine-3-carboxamide] | 0.11 µM | 100% | –
O=C(N[C@@H](C1CC1)C(F)(F)F)c1cn(-c2ncc(F)cc2F)c2nc(N3C[C@@H](O)[C@H](O)C3)ccc2c1=O [Example 63, N-[(1S)-1-Cyclopropyl-2,2,2-trifluoroethyl]-1-(3,5-difluoropyridin-2-yl)-7-[(3R,4R)-3,4-dihydroxypyrrolidin-1-yl]-4-oxo-1,4-dihydro-1,8-naphthyridine-3-carboxamide] | 0.17 µM | 100% | –
CC[C@H](NC(=O)c1cn(-c2ncc(F)cc2F)c2nc(N3C(=O)C(C)(C)C(O)C34CC4)ccc2c1=O)C(F)(F)F (stereo partly drawn) [Example 31, 1-(3,5-Difluoropyridin-2-yl)-7-[7-hydroxy-6,6-dimethyl-5-oxo-4-azaspiro[2.4]hept-4-yl]-4-oxo-N-[(2S)-1,1,1-trifluorobutan-2-yl]-1,4-dihydro-1,8-naphthyridine-3-carboxamide] | 0.645 µM | 88.5% | –
CCC(NC(=O)c1cn(-c2ncc(F)cc2F)c2nc(N3CCNC3=O)ccc2c1=O)C(F)(F)C(F)(F)F (single isomer, unassigned) [Example 166, 1-(3,5-Difluoropyridin-2-yl)-4-oxo-7-(2-oxoimidazolidin-1-yl)-N-[1,1,1,2,2-pentafluoropentan-3-yl]-1,4-dihydro-1,8-naphthyridine-3-carboxamide] | 0.03 µM | – | 81.00%
CC[C@H](NC(=O)c1cn(-c2ncc(F)cc2F)c2nc(N3CC(O)C3)ccc2c1=O)C(F)(F)F [Example 133, 1-(3,5-Difluoropyridin-2-yl)-7-(3-hydroxyazetidin-1-yl)-4-oxo-N-[(2S)-1,1,1-trifluorobutan-2-yl]-1,4-dihydro-1,8-naphthyridine-3-carboxamide] | 0.315 µM | 92% | –
CC[C@H](NC(=O)c1cn(-c2ncc(F)cc2F)c2nc(N3CC[C@H](F)C3)ccc2c1=O)C(F)(F)F [Example 129, 1-(3,5-Difluoropyridin-2-yl)-7-[(3S)-3-fluoropyrrolidin-1-yl]-4-oxo-N-[(2S)-1,1,1-trifluorobutan-2-yl]-1,4-dihydro-1,8-naphthyridine-3-carboxamide] | 0.021 µM | 96.5% | –
CC[C@H](NC(=O)c1cn(-c2ncc(F)cc2F)c2nc(N3CC(O)C(C)C3=O)ccc2c1=O)C(F)(F)F (single isomer, unassigned) [Example 111] | 0.1 µM | – | 99.00%
O=C(NC(C(F)(F)F)C(F)(F)F)c1cn(-c2ncc(F)cc2F)c2nc(N3CCC[C@@H]3CO)ccc2c1=O [Example 180, 1-(3,5-Difluoropyridin-2-yl)-N-(1,1,1,3,3,3-hexafluoropropan-2-yl)-7-[(2R)-2-(hydroxymethyl)pyrrolidin-1-yl]-4-oxo-1,4-dihydro-1,8-naphthyridine-3-carboxamide] | 0.089 µM | 100% | –
O=C(NC(C1CC1)C(F)(F)F)c1cn(-c2ncc(F)cc2F)c2nc(N3CC[C@H](O)C3=O)ccc2c1=O (stereo partly drawn) [Example 25, N-[1-Cyclopropyl-2,2,2-trifluoroethyl]-1-(3,5-difluoropyridin-2-yl)-7-[(3S)-3-hydroxy-2-oxopyrrolidin-1-yl]-4-oxo-1,4-dihydro-1,8-naphthyridine-3-carboxamide] | 0.21 µM | 98% | –

Further compounds by falling EC50, results first:

EC50 | Emax | Efficiency | SMILES
0.56 µM | 97% | – | CC[C@@H](NC(=O)c1cn(-c2ncc(F)cc2Cl)c2nc(N3CCC(C)(O)C3)ccc2c1=O)C(F)(F)F (mixture of isomers) [Example 49, 1-(3-Chloro-5-fluoropyridin-2-yl)-7-[3-hydroxy-3-methylpyrrolidin-1-yl]-4-oxo-N-[(2R)-1,1,1-trifluorobutan-2-yl]-1,4-dihydro-1,8-naphthyridine-3-carboxamide]
0.31 µM | 92.5% | – | O=C(Nc1c(Cl)cccc1Cl)c1cn(-c2ncc(F)cc2F)c2nc(N3C[C@@H](O)[C@@H](O)C3)ccc2c1=O [Example 66, N-(2,6-Dichlorophenyl)-1-(3,5-difluoropyridin-2-yl)-7-[(3R,4S)-3,4-dihydroxypyrrolidin-1-yl]-4-oxo-1,4-dihydro-1,8-naphthyridine-3-carboxamide]
0.22 µM | 100% | – | O=C(N[C@@H](C1CC1)C(F)(F)F)c1cn(-c2ncc(F)cc2F)c2nc(N3C[C@@H](O)[C@@H](O)C3)ccc2c1=O [Example 62, N-[(1S)-1-Cyclopropyl-2,2,2-trifluoroethyl]-1-(3,5-difluoropyridin-2-yl)-7-[(3R,4S)-3,4-dihydroxypyrrolidin-1-yl]-4-oxo-1,4-dihydro-1,8-naphthyridine-3-carboxamide]
0.118 µM | 100% | – | CC(C)(NC(=O)c1cn(-c2ncc(F)cc2F)c2nc(N3CCC[C@@H]3CO)ccc2c1=O)C(F)(F)C(F)(F)F [Example 188, 1-(3,5-Difluoropyridin-2-yl)-7-[(2R)-2-(hydroxymethyl)pyrrolidin-1-yl]-4-oxo-N-(3,3,4,4,4-pentafluoro-2-methylbutan-2-yl)-1,4-dihydro-1,8-naphthyridine-3-carboxamide]
0.108 µM | 95.5% | – | CC[C@H](NC(=O)c1cn(-c2ncc(F)cc2F)c2nc(N3CC(O)(C(F)(F)F)C3)ccc2c1=O)C(F)(F)F [Example 131, 1-(3,5-Difluoropyridin-2-yl)-7-[3-hydroxy-3-(trifluoromethyl)azetidin-1-yl]-4-oxo-N-[(2S)-1,1,1-trifluorobutan-2-yl]-1,4-dihydro-1,8-naphthyridine-3-carboxamide]
0.097 µM | – | 98.00% | CC1C(=O)N(c2ccc3c(=O)c(C(=O)N[C@@H](C4CC4)C(F)(F)F)cn(-c4ncc(F)cc4F)c3n2)CC1O (single isomer, unassigned) [Example 107]

From patent US10519154B2, “7-substituted 1-pyridyl-naphthyridine-3-carboxylic acid amides and use thereof” (Bayer Pharma Aktiengesellschaft, priority 2016, dated 2019)
